Laboratory results published in ChEMBL document CHEMBL2412960, “Inhibition of Mycobacterium tuberculosis strains H37Rv and MDR MS-115 by a new set of C5 modified pyrimidine nucleosides” (Bioorg Med Chem, 2013).
≈ marks a conversion by molar mass, not a printed value. Calls of active or inactive are those of the source. The calls are words filed in the database; no cut-off is given here.

Legend:
[1] = test system: Mycobacterium tuberculosis; test: Bacteriostatic activity against Mycobacterium tuberculosis H37Rv assessed as growth inhibition at 10 ug/mL relative to control; assay type: functional; details: read-out: GI
[2] = Cytotoxicity against African green monkey Vero cells after 72 hrs by MTT assay; assay type: cell-based; details: chlorocebus sabaeus, read-out: CD50
[3] = test system: Mycobacterium tuberculosis; test: Bacteriostatic activity against Mycobacterium tuberculosis H37Rv assessed as growth inhibition at 20 ug/mL relative to control; assay type: functional; details: read-out: GI
[4] = Cytotoxicity against human Jurkat cells after 72 hrs by MTT assay; assay type: cell-based; details: read-out: CD50
[5] = Cytotoxicity against human A549 cells after 72 hrs by MTT assay; assay type: cell-based; details: read-out: CD50
[6] = test system: Mycobacterium tuberculosis; test: Bacteriostatic activity against Mycobacterium tuberculosis H37Rv assessed as growth inhibition; assay type: functional
[7] = test system: Mycobacterium tuberculosis; test: Bacteriostatic activity against Mycobacterium tuberculosis H37Rv assessed as growth inhibition at 50 ug/mL relative to control; assay type: functional; details: read-out: GI
[8] = test system: Mycobacterium tuberculosis; test: Bacteriostatic activity against Mycobacterium tuberculosis H37Rv assessed as growth inhibition at 100 ug/mL relative to control; assay type: functional; details: read-out: GI
[9] = test system: Mycobacterium tuberculosis; test: Bacteriostatic activity against Mycobacterium tuberculosis H37Rv assessed as growth inhibition at 5 ug/mL relative to control; assay type: functional; details: read-out: GI
Escherichia coli = test: Antibacterial activity against Escherichia coli ATCC 25922; assay type: functional, organism-based
Aspergillus niger = test: Antifungal activity against Aspergillus niger INA 00760; assay type: functional, organism-based
Bacillus mycoides = test: Antibacterial activity against Bacillus mycoides 537; assay type: functional, organism-based
Staphylococcus aureus [10] = test: Antibacterial activity against methicillin-resistant Staphylococcus aureus INA 00761; assay type: functional, organism-based
[11] = test system: Mycobacterium tuberculosis; test: Bacteriostatic activity against Mycobacterium tuberculosis H37Rv assessed as growth inhibition at 40 ug/mL relative to control; assay type: functional; details: read-out: GI
Staphylococcus aureus [12] = test: Antibacterial activity against methicillin-susceptible Staphylococcus aureus FDA 209P; assay type: functional, organism-based
Pseudomonas aeruginosa = test: Antibacterial activity against Pseudomonas aeruginosa ATCC 27853; assay type: functional, organism-based
Bacillus subtilis = test: Antibacterial activity against Bacillus subtilis ATCC 6633; assay type: functional, organism-based
[13] = test system: Leuconostoc mesenteroides; test: Antibacterial activity against vancomycin-resistant Leuconostoc mesenteroides VKPM B-4177; assay type: functional
Micrococcus luteus = test: Antibacterial activity against Micrococcus luteus NCTC 8340; assay type: functional, organism-based
Bacillus pumilus = test: Antibacterial activity against Bacillus pumilus NCTC 8241; assay type: functional, organism-based
Saccharomyces cerevisiae = test: Antifungal activity against Saccharomyces cerevisiae RIA 259; assay type: functional, organism-based

Row | SMILES | inhibition of growth at 10 µg/mL [1] | CC50 at 72 h [2] | inhibition of growth at 20 µg/mL [3] | CC50 at 72 h [4] | CC50 at 72 h [5] | MIC99 [6] | inhibition of growth at 50 µg/mL [7] | inhibition of growth at 5 µg/mL [9] | Activity (Escherichia coli) | Activity (Aspergillus niger) | Activity (Bacillus mycoides) | Activity (Staphylococcus aureus [10]) | inhibition of growth at 40 µg/mL [11] | Activity (Staphylococcus aureus [12]) | Activity (Pseudomonas aeruginosa) | Activity (Bacillus subtilis) | Activity [13] | Activity (Micrococcus luteus) | Activity (Bacillus pumilus) | Activity (Saccharomyces cerevisiae) | other results
1 | CCCCCCCCCCCCOCc1cn([C@H]2C[C@H](N)[C@@H](CO)O2)c(=O)[nH]c1=O | 25% | 50 µg/mL (≈ 117 µM) | 90% | 7 µg/mL (≈ 16.4 µM) | 8 µg/mL (≈ 18.8 µM) | > 20 µg/mL | – | – | – | – | – | – | – | – | – | – | – | – | – | – | –
2 | CCCCCCCCCCCCOCc1cn([C@H]2C[C@H](O)[C@@H](CN)O2)c(=O)[nH]c1=O | 50% | 14 µg/mL (≈ 32.9 µM) | 100% | 7 µg/mL (≈ 16.4 µM) | 8 µg/mL (≈ 18.8 µM) | 20 µg/mL (≈ 47 µM) | 100% | – | – | – | – | – | – | – | – | – | – | – | – | – | inhibition of growth at 100 µg/mL [8]: 100%
3 | CCCCCCCCCCCCOCc1cn([C@H]2C[C@H](N(CC)CC)[C@@H](CO)O2)c(=O)[nH]c1=O | 75% | 7.5 µg/mL (≈ 15.6 µM) | 99% | 5 µg/mL (≈ 10.4 µM) | 5 µg/mL (≈ 10.4 µM) | 20 µg/mL (≈ 41.5 µM) | 100% | – | – | – | – | – | – | – | – | – | – | – | – | – | inhibition of growth at 100 µg/mL [8]: 100%
4 | CCCCCCCCCCCCOCc1cn([C@H]2C[C@H](NCC)[C@@H](CO)O2)c(=O)[nH]c1=O | 99% | 13 µg/mL (≈ 28.7 µM) | 100% | 5 µg/mL (≈ 11 µM) | 5 µg/mL (≈ 11 µM) | 10 µg/mL (≈ 22 µM) | 100% | 75% | – | – | – | – | – | – | – | – | – | – | – | – | inhibition of growth at 100 µg/mL [8]: 100%
5 | CC1COc2c(N3CCN(C)CC3)c(F)cc3c(=O)c(C(=O)O)cn1c23 (centres undefined) [OFLOXACIN] | – | – | – | – | – | 2 µg/mL (≈ 5.53 µM) | – | – | – | – | – | – | – | – | – | – | – | – | – | – | –
6 | CCCCCCCCCCCCOCc1cn([C@H]2C[C@H](O)[C@@H](CI)O2)c(=O)[nH]c1=O | 100% | 70 µg/mL (≈ 130 µM) | 100% | > 100 µg/mL | > 100 µg/mL | 10 µg/mL (≈ 18.6 µM) | 100% | 90% | – | – | – | – | – | – | – | – | – | – | – | – | –
7 | CCCCCCCCc1cn(Cc2cn([C@H]3C[C@H](O)[C@@H](CO)O3)c(=O)[nH]c2=O)nn1 | 90% | > 100 µg/mL | 99% | > 100 µg/mL | > 100 µg/mL | 20 µg/mL (≈ 47.4 µM) | – | – | inactive | inactive | inactive | inactive | 100% | inactive | inactive | inactive | inactive | inactive | inactive | inactive | –
8 | CCCCCCCCCCc1cn(Cc2cn([C@H]3C[C@H](O)[C@@H](CO)O3)c(=O)[nH]c2=O)nn1 | 100% | > 100 µg/mL | – | 100 µg/mL (≈ 222 µM) | 100 µg/mL (≈ 222 µM) | 10 µg/mL (≈ 22.2 µM) | – | 90% | inactive | inactive | inactive | inactive | – | inactive | inactive | inactive | inactive | inactive | inactive | inactive | –
9 | CCCCCCCCCCCCOCc1cn([C@H]2C[C@H](O)[C@@H](CN=[N+]=[N-])O2)c(=O)[nH]c1=O | 99% | > 100 µg/mL | 100% | 18 µg/mL (≈ 39.9 µM) | 20 µg/mL (≈ 44.3 µM) | 10 µg/mL (≈ 22.1 µM) | 100% | 75% | – | – | – | – | – | – | – | – | – | – | – | – | inhibition of growth at 100 µg/mL [8]: 100%
10 | CCCCCCCCCCc1cn(Cc2cn([C@H]3C[C@H](O)[C@@H](CO)O3)c(=O)nc2N)nn1 | – | > 100 µg/mL | 90% | 100 µg/mL (≈ 223 µM) | 100 µg/mL (≈ 223 µM) | 40 µg/mL (≈ 89.2 µM) | – | – | – | – | – | – | 100% | – | – | – | – | – | – | – | –
11 | CCCCCCCCc1cn(Cc2cn([C@H]3C[C@H](O)[C@@H](CO)O3)c(=O)nc2N)nn1 | – | > 100 µg/mL | 90% | > 100 µg/mL | > 100 µg/mL | 40 µg/mL (≈ 95.1 µM) | – | – | – | – | – | – | 100% | – | – | – | – | – | – | – | –
12 | CCCCCCCCCCOCc1cn([C@H]2C[C@H](O)[C@@H](CO)O2)c(=O)[nH]c1=O | – | > 100 µg/mL | – | – | – | 40 µg/mL (≈ 100 µM) | – | – | inactive | inactive | inactive | inactive | 99% | inactive | inactive | inactive | inactive | inactive | inactive | inactive | –
13 | NNC(=O)c1ccncc1 [ISONIAZID] | – | – | – | – | – | 0.1 µg/mL (≈ 0.729 µM) | – | – | – | – | – | – | – | – | – | – | – | – | – | – | –
14 | CCCCCCCCCCCCc1cn(Cc2cn([C@H]3C[C@H](O)[C@@H](CO)O3)c(=O)[nH]c2=O)nn1 | 99% | > 100 µg/mL | 99% | > 100 µg/mL | > 100 µg/mL | 10 µg/mL (≈ 20.9 µM) | – | 90% | inactive | inactive | inactive | inactive | 100% | inactive | inactive | inactive | inactive | inactive | inactive | inactive | –
15 | CCCCCCCCCCCOCc1cn([C@H]2C[C@H](O)[C@@H](CO)O2)c(=O)[nH]c1=O | – | > 100 µg/mL | 99% | 70 µg/mL (≈ 170 µM) | 90 µg/mL (≈ 218 µM) | 20 µg/mL (≈ 48.5 µM) | – | – | inactive | inactive | inactive | inactive | 100% | inactive | inactive | inactive | inactive | inactive | inactive | inactive | –
16 | CCCCCCCCCCCCc1cn(Cc2cn([C@H]3C[C@H](O)[C@@H](CO)O3)c(=O)nc2N)nn1 | 99% | > 100 µg/mL | 100% | 100 µg/mL (≈ 210 µM) | 100 µg/mL (≈ 210 µM) | 10 µg/mL (≈ 21 µM) | – | 75% | – | – | – | – | – | – | – | – | – | – | – | – | –
